Test results reported in ChEMBL document CHEMBL6078677, “Discovery and optimization of tetrahydroacridine derivatives as a novel class of antibiotics against multidrug-resistant Gram-positive pathogens by targeting type I signal peptidase and disrupting bacterial membrane” (Eur J Med Chem, 2025).
≈ marks a conversion by molar mass, not a printed value. Numbered stars: 1 amine (or outer) side, 2 acyl side, 3 side chain; on linkers, the order of the positions; unused ones are H or OH. Bridge positions count the residues as written; N and C are the ends. Square brackets hold non-standard residues; d marks the D form. Side chains are listed from the residue outwards. Peptide text beside a SMILES is read from it. * marks the point of attachment. X1 = C[C@@H](O)[C@H](CN([C@@H](CCN)C(=O)[*:2])[*:1])N[*:3]; Octanoyl(6-Me) = CCC(C)CCCCC(=O)*; Dab = NCC[C@H](N)C(=O)O

What was measured:
Staphylococcus aureus [1] = assay: Antimicrobial activity against Staphylococcus aureus ATCC 29213 assessed as inhibition of visible growth of bacteria incubated for 20 hrs by broth microdilution method; assay type: functional
Enterococcus faecium [2] = assay: Antimicrobial activity against Enterococcus faecium QF31 harboring erythromycin resistance rRNA methylase B and chloramphenicol-florfenicol resistance methylase assessed as inhibition of visible growth of bacteria incubated for 20 hrs by broth microdilution method; assay type: functional
Enterococcus faecalis [3] = assay: microbe, parasite or virus in culture; assay type: functional; conditions: SF23-1, time 20 hrs
Description: Antimicrobial activity against Enterococcus faecalis SF23-1 harboring erythromycin-resistance rRNA methylase B, tetracycline efflux protein L and chloramphenicol-florfenicol resistance methylase assessed as inhibition of visible growth of bacteria incubated for 20 hrs by broth microdilution method

Streptococcus suis [4] = assay: Antimicrobial activity against Streptococcus suis P1/7 assessed as inhibition of visible growth of bacteria incubated for 20 hrs by broth microdilution method; assay type: functional
Staphylococcus aureus [5] = assay: Antimicrobial activity against Staphylococcus aureus YZSA-15 harboring erythromycin resistance rRNA methylase C and vancomycin resistance locus assessed as inhibition of visible growth of bacteria incubated for 20 hrs by broth microdilution method; assay type: functional
Staphylococcus aureus [6] = assay: Antimicrobial activity against Staphylococcus aureus YZSA-21 harboring erythromycin resistance rRNA methylase C assessed as inhibition of visible growth of bacteria incubated for 20 hrs by broth microdilution method; assay type: functional
Staphylococcus aureus [7] = assay: Antimicrobial activity against Staphylococcus aureus YZSA-24 harboring erythromycin resistance rRNA methylase C and methicillin resistance gene resistance locus assessed as inhibition of visible growth of bacteria incubated for 20 hrs by broth microdilution method; assay type: functional
Staphylococcus aureus [8] = assay: microbe, parasite or virus in culture; assay type: functional; conditions: M92-1, time 20 hrs
Description: Antimicrobial activity against Staphylococcus aureus M92-1 harboring erythromycin resistance rRNA methylase B, tetracycline efflux protein L and oxazolidinone-phenicol transferable resistance gene assessed as inhibition of visible growth of bacteria incubated for 20 hrs by broth microdilution method

Staphylococcus aureus [9] = assay: microbe, parasite or virus in culture; assay type: functional; conditions: M147-2, time 20 hrs
Description: Antimicrobial activity against Staphylococcus aureus M147-2 harboring erythromycin resistance rRNA methylase B, tetracycline efflux protein L and chloramphenicol-florfenicol resistance methylase assessed as inhibition of visible growth of bacteria incubated for 20 hrs by broth microdilution method

Enterococcus faecium [10] = assay: Antimicrobial activity against Enterococcus faecium HFY01 assessed as inhibition of visible growth of bacteria incubated for 20 hrs by broth microdilution method; assay type: functional
Enterococcus faecium [11] = assay: Antimicrobial activity against Enterococcus faecium MC38 harboring erythromycin resistance rRNA methylase B and oxazolidinone-phenicol transferable resistance gene assessed as inhibition of visible growth of bacteria incubated for 20 hrs by broth microdilution method; assay type: functional
Enterococcus faecalis [12] = assay: Antimicrobial activity against Enterococcus faecalis JH2-2 assessed as inhibition of visible growth of bacteria incubated for 20 hrs by broth microdilution method; assay type: functional
Enterococcus faecalis [13] = assay: Antimicrobial activity against Enterococcus faecalis ES01 harboring erythromycin-resistance rRNA methylase B and vanB-type vancomycin-resistance locus assessed as inhibition of visible growth of bacteria incubated for 20 hrs by broth microdilution method; assay type: functional
Enterococcus faecalis [14] = assay: Antimicrobial activity against Enterococcus faecalis J2 harboring erythromycin-resistance rRNA methylase B and oxazolidinone phenicol transferable resistance gene assessed as inhibition of visible growth of bacteria incubated for 20 hrs by broth microdilution method; assay type: functional
Streptococcus suis [15] = assay: microbe, parasite or virus in culture; assay type: functional; conditions: SH0918, time 20 hrs
Description: Antimicrobial activity against Streptococcus suis SH0918 harboring erythromycin-resistance rRNA methylase B, tetracycline efflux protein O and oxazolidinone phenicol transferable resistance gene assessed as inhibition of visible growth of bacteria incubated for 20 hrs by broth microdilution method

Streptococcus pyogenes = assay: Antimicrobial activity against Streptococcus pyogenes DL02 harboring erythromycin-resistance rRNA methylase B assessed as inhibition of visible growth of bacteria incubated for 20 hrs by broth microdilution method; assay type: functional
Streptococcus agalactiae = assay: Antimicrobial activity against Streptococcus agalactiae DL03 harboring erythromycin-resistance rRNA methylase B assessed as inhibition of visible growth of bacteria incubated for 20 hrs by broth microdilution method; assay type: functional
Salmonella enteritidis = assay: Antimicrobial activity against Salmonella enteritis S1 assessed as inhibition of visible growth of bacteria incubated for 20 hrs by broth microdilution method; assay type: functional, Salmonella enterica subsp. enterica serovar Enteritidis; conditions: Salmonella enterica
Klebsiella pneumoniae = assay: Antimicrobial activity against Klebsiella pneumoniae 9-1 assessed as inhibition of visible growth of bacteria incubated for 20 hrs by broth microdilution method; assay type: functional
Acinetobacter baumannii [16] = assay: Antimicrobial activity against Acinetobacter baumannii AB11 assessed as inhibition of visible growth of bacteria incubated for 20 hrs by broth microdilution method; assay type: functional
Acinetobacter baumannii [17] = assay: Antimicrobial activity against Acinetobacter baumannii 7979 assessed as inhibition of visible growth of bacteria incubated for 20 hrs by broth microdilution method; assay type: functional
Pseudomonas aeruginosa [18] = assay: Antimicrobial activity against Pseudomonas aeruginosa PA01 assessed as inhibition of visible growth of bacteria incubated for 20 hrs by broth microdilution method; assay type: functional
Pseudomonas aeruginosa [19] = assay: Antimicrobial activity against Pseudomonas aeruginosa PA14 assessed as inhibition of visible growth of bacteria incubated for 20 hrs by broth microdilution method; assay type: functional
Escherichia coli = assay: Antimicrobial activity against Escherichia coli ATCC 25922 assessed as inhibition of visible growth of bacteria incubated for 20 hrs by broth microdilution method; assay type: functional
Signal peptidase I = Signal peptidase I (Escherichia coli K-12, UniProt P00803); assay: Binding affinity to recombinant 6His-tagged Escherichia coli LepB (77 to 324 residues) extracted from Escherichia coli BL21 (DE3) cells assessed as dissociation constant by MST analysis
Sequence of Signal peptidase I (P00803 whole entry, the tested form may be a part): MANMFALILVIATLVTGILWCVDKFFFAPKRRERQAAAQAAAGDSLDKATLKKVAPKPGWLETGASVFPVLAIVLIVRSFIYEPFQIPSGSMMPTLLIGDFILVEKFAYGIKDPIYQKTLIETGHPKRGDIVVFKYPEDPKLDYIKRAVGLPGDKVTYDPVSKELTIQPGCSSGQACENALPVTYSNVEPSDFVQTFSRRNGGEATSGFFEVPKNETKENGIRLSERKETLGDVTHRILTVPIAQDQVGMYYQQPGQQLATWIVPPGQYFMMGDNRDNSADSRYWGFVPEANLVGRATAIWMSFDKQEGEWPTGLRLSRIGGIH

Row | Compound | MIC (Staphylococcus aureus [1]) | MIC (Enterococcus faecium [2]) | MIC (Enterococcus faecalis [3]) | MIC (Streptococcus suis [4]) | MIC (Staphylococcus aureus [5]) | MIC (Staphylococcus aureus [6]) | MIC (Staphylococcus aureus [7]) | MIC (Enterococcus faecium [10]) | MIC (Enterococcus faecium [11]) | MIC (Enterococcus faecalis [12]) | MIC (Enterococcus faecalis [13]) | MIC (Enterococcus faecalis [14]) | MIC (Streptococcus suis [15]) | MIC (Streptococcus pyogenes) | MIC (Salmonella enteritidis) | MIC (Klebsiella pneumoniae) | MIC (Acinetobacter baumannii [16]) | MIC (Acinetobacter baumannii [17]) | MIC (Pseudomonas aeruginosa [18]) | MIC (Pseudomonas aeruginosa [19]) | other results
1 | CNC(C)[C@@H]1CC[C@@H](N)[C@@H](O[C@H]2[C@H](O)[C@@H](O[C@H]3OC[C@](C)(O)[C@H](NC)[C@H]3O)[C@H](N)C[C@@H]2N)O1.CN[C@@H]1[C@@H](O)[C@@H](O[C@@H]2[C@@H](O)[C@H](O[C@H]3O[C@H](C(C)N)CC[C@H]3N)[C@@H](N)C[C@H]2N)OC[C@]1(C)O.CN[C@@H]1[C@@H](O)[C@@H](O[C@@H]2[C@@H](O)[C@H](O[C@H]3O[C@H](CN)CC[C@H]3N)[C@@H](N)C[C@H]2N)OC[C@]1(C)O (stereo partly specified) | 1 µg/mL | > 32 µg/mL | 8 µg/mL | 4 µg/mL | 0.5 µg/mL | 0.5 µg/mL | 0.5 µg/mL | < 0.06 µg/mL | > 32 µg/mL | 4 µg/mL | > 32 µg/mL | 8 µg/mL | > 32 µg/mL | 1 µg/mL | 0.25 µg/mL | 0.5 µg/mL | < 0.06 µg/mL | > 32 µg/mL | 0.125 µg/mL | < 0.06 µg/mL | MIC (Staphylococcus aureus [8]): > 32 µg/mL; MIC (Staphylococcus aureus [9]): 0.5 µg/mL; MIC (Streptococcus agalactiae): 16 µg/mL
2 | CC(C)CCCCC(=O)N[C@@H](CCN)C(=O)N[C@@H](CN[C@@H](CCN)C(=O)N[C@H]1CCNC(=O)[C@H]([C@@H](C)O)NC(=O)[C@H](CCN)NC(=O)[C@H](CCN)NC(=O)[C@H](CC(C)C)NC(=O)[C@@H](CC(C)C)NC(=O)[C@H](CCN)NC1=O)[C@@H](C)O.CCC(C)CCCCC(=O)N[C@@H](CCN)C(=O)N[C@@H](CN[C@@H](CCN)C(=O)N[C@H]1CCNC(=O)[C@H]([C@@H](C)O)NC(=O)[C@H](CCN)NC(=O)[C@H](CCN)NC(=O)[C@H](CC(C)C)NC(=O)[C@@H](CC(C)C)NC(=O)[C@H](CCN)NC1=O)[C@@H](C)O (stereo partly drawn) (H-[X1]([Dab-Octanoyl(6-Me)])[Dab][Dab][dL]L[Dab][Dab]T; lactam 2-C) | – | – | – | – | – | – | – | – | – | – | – | – | – | – | 0.5 µg/mL | 0.5 µg/mL | 8 µg/mL | < 0.06 µg/mL | 0.125 µg/mL | < 0.06 µg/mL | MIC (Escherichia coli): 1 µg/mL
3 | CC1C/C(=C\c2ccc(-c3cccc(Cl)c3)o2)c2nc3ccccc3c(C(=O)O)c2C1 (racemic) | 8 µg/mL (≈ 18.6 µM) | 16 µg/mL (≈ 37.2 µM) | > 64 µg/mL | 32 µg/mL (≈ 74.4 µM) | – | – | – | – | – | – | – | – | – | – | – | – | – | – | – | – | Kd (Signal peptidase I): 42.1 µM
4 | C[C@H]1[C@H](NC(=O)/C(=N\OC(C)(C)C(=O)O)c2csc(N)n2)C(=O)N1S(=O)(=O)O [AZTREONAM] | – | – | – | – | – | – | – | – | – | – | – | – | – | – | 2 µg/mL (≈ 4.59 µM) | 2 µg/mL (≈ 4.59 µM) | > 32 µg/mL | > 32 µg/mL | 2 µg/mL (≈ 4.59 µM) | 4 µg/mL (≈ 9.19 µM) | MIC (Escherichia coli): 0.25 µg/mL (≈ 0.574 µM)
5 | CO[C@@]1(NC(=O)Cc2cccs2)C(=O)N2C(C(=O)O)=C(COC(N)=O)CS[C@@H]21 [CEFOXITIN] | 1 µg/mL (≈ 2.34 µM) | > 32 µg/mL | > 32 µg/mL | 1 µg/mL (≈ 2.34 µM) | 2 µg/mL (≈ 4.68 µM) | 4 µg/mL (≈ 9.36 µM) | 32 µg/mL (≈ 74.9 µM) | 8 µg/mL (≈ 18.7 µM) | > 32 µg/mL | > 32 µg/mL | > 32 µg/mL | > 32 µg/mL | 8 µg/mL (≈ 18.7 µM) | 1 µg/mL (≈ 2.34 µM) | 32 µg/mL (≈ 74.9 µM) | > 32 µg/mL | 16 µg/mL (≈ 37.4 µM) | > 32 µg/mL | > 32 µg/mL | > 32 µg/mL | MIC (Staphylococcus aureus [8]): 4 µg/mL (≈ 9.36 µM); MIC (Staphylococcus aureus [9]): 4 µg/mL (≈ 9.36 µM); MIC (Streptococcus agalactiae): 16 µg/mL (≈ 37.4 µM); MIC (Escherichia coli): 0.25 µg/mL (≈ 0.585 µM)
6 | O=C(O)c1cn(C2CC2)c2cc(N3CCNCC3)c(F)cc2c1=O [CIPROFLOXACIN] | 1 µg/mL (≈ 3.02 µM) | 2 µg/mL (≈ 6.04 µM) | 16 µg/mL (≈ 48.3 µM) | 0.125 µg/mL (≈ 0.377 µM) | 0.25 µg/mL (≈ 0.754 µM) | 0.5 µg/mL (≈ 1.51 µM) | 4 µg/mL (≈ 12.1 µM) | 1 µg/mL (≈ 3.02 µM) | 8 µg/mL (≈ 24.1 µM) | 0.5 µg/mL (≈ 1.51 µM) | > 32 µg/mL | 0.5 µg/mL (≈ 1.51 µM) | 16 µg/mL (≈ 48.3 µM) | 1 µg/mL (≈ 3.02 µM) | – | – | – | – | – | – | MIC (Streptococcus agalactiae): 16 µg/mL (≈ 48.3 µM)
